Results taken from the kinase profiling compilation of Christmann-Franck et al. (2016).

How the values were obtained:
Experiment in all cases: KINOMEscan competition binding
Settings in all cases: compound 0.1 µM
[1] = target: BRAF (human) (UniProt P15056)
[2] = target: MET (human) (UniProt P08581)
[3] = target: PIK3CG (human) (UniProt P48736)
[4] = test system: KIT (human), P10721 [V559D/V654A]
[5] = target: NUAK1 (human) (UniProt O60285)
[6] = target: EPHB2 (human) (UniProt P29323)
[7] = target: EPHA2 (human) (UniProt P29317)
[8] = target: TGFBR1 (human) (UniProt P36897)
[9] = target: TAOK2 (human) (UniProt Q9UL54)
[10] = target: MYO3A (human) (UniProt Q8NEV4)
[11] = target: NEK3 (human) (UniProt P51956)
[12] = target: ZAP70 (human) (UniProt P43403)
[13] = target: CDK15 (human) (UniProt Q96Q40)
[14] = target: GRK1 (human) (UniProt Q15835)
[15] = target: PRKCQ (human) (UniProt Q04759)
Sequence of PRKCQ (human) (Q04759 whole entry, looked up): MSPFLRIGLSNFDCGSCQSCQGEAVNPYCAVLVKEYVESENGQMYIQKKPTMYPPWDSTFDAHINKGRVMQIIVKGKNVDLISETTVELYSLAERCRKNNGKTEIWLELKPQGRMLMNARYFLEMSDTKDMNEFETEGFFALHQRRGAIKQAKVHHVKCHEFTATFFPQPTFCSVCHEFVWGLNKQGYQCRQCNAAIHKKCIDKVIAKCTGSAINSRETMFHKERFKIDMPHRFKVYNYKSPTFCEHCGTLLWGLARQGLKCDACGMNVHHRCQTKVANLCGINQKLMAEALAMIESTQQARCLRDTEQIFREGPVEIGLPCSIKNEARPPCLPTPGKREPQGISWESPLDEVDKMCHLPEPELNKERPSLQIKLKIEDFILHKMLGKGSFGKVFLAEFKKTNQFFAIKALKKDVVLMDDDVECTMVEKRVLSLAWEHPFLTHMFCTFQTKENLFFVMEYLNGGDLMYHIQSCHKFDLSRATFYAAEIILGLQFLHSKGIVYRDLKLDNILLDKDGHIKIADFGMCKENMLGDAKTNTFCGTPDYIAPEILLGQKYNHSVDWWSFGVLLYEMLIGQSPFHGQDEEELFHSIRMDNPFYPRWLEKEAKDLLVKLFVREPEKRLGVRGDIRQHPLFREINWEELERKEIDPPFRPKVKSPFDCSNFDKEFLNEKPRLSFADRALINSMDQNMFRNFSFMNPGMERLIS

[16] = target: AURKB (human) (UniProt Q96GD4)
[17] = target: SGK2 (human) (UniProt Q9HBY8)
[18] = target: PRKAA1 (human) (UniProt Q13131)
[19] = target: BLK (human) (UniProt P51451)
[20] = target: PIK3CD (human) (UniProt O00329)
[21] = target: PIP5K1C (human) (UniProt O60331)
[22] = target: KDR (human) (UniProt P35968)
[23] = target: PTK6 (human) (UniProt Q13882)
Sequence of PTK6 (human) (Q13882 whole entry, looked up): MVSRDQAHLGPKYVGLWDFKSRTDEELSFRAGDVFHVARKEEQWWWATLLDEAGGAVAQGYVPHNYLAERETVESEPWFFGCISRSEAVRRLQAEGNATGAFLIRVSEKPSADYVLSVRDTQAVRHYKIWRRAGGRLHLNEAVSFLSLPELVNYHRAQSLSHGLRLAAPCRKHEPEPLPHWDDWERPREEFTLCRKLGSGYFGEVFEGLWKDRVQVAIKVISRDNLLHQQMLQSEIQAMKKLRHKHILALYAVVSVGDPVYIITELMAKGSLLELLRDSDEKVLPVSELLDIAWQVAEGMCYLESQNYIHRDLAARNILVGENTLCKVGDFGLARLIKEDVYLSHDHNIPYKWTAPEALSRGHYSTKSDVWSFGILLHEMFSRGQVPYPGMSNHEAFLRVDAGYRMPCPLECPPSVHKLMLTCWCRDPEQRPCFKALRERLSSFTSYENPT

[24] = target: CIT (human) (UniProt O14578)
[25] = target: LIMK1 (human) (UniProt P53667)
[26] = target: MAP2K4 (human) (UniProt P45985)
[27] = target: ACVR2A (human) (UniProt P27037)
[28] = target: FRK (human) (UniProt P42685)
Sequence of FRK (human) (P42685 whole entry, looked up): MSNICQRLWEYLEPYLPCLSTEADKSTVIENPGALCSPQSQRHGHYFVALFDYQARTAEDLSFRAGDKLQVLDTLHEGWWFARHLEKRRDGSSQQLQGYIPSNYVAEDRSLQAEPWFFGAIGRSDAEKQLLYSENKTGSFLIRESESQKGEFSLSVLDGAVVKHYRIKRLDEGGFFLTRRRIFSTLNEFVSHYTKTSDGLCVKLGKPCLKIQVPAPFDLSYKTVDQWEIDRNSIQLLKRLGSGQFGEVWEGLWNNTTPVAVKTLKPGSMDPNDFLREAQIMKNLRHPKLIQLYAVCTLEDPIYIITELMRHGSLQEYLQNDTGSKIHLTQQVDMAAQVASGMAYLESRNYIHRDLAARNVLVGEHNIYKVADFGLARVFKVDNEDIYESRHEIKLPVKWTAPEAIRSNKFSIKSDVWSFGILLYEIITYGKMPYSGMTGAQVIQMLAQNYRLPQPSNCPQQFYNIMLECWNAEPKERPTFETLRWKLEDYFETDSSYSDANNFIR

[29] = target: CAMK2B (human) (UniProt Q13554)
Sequence of CAMK2B (human) (Q13554 whole entry, looked up): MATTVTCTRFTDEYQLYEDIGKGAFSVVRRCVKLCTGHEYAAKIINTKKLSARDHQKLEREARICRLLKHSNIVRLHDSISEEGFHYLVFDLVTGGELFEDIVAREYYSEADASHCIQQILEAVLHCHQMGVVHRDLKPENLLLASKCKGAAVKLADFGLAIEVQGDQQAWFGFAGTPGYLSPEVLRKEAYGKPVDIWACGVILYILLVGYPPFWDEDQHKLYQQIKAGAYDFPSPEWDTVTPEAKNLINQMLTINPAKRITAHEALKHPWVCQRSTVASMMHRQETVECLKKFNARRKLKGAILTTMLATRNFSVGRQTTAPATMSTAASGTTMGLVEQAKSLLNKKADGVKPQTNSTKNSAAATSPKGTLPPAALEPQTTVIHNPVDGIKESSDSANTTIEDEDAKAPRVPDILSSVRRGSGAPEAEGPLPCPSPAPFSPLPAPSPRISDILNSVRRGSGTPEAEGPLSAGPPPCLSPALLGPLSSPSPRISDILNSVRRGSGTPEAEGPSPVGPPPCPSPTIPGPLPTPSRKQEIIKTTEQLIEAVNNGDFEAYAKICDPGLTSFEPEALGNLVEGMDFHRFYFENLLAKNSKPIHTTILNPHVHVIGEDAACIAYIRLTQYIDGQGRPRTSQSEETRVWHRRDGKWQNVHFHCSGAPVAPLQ

[30] = target: CSNK2A2 (human) (UniProt P19784)
[31] = target: HIPK1 (human) (UniProt Q86Z02)
[32] = target: DCLK2 (human) (UniProt Q8N568)
Sequence of DCLK2 (human) (Q8N568 whole entry, looked up): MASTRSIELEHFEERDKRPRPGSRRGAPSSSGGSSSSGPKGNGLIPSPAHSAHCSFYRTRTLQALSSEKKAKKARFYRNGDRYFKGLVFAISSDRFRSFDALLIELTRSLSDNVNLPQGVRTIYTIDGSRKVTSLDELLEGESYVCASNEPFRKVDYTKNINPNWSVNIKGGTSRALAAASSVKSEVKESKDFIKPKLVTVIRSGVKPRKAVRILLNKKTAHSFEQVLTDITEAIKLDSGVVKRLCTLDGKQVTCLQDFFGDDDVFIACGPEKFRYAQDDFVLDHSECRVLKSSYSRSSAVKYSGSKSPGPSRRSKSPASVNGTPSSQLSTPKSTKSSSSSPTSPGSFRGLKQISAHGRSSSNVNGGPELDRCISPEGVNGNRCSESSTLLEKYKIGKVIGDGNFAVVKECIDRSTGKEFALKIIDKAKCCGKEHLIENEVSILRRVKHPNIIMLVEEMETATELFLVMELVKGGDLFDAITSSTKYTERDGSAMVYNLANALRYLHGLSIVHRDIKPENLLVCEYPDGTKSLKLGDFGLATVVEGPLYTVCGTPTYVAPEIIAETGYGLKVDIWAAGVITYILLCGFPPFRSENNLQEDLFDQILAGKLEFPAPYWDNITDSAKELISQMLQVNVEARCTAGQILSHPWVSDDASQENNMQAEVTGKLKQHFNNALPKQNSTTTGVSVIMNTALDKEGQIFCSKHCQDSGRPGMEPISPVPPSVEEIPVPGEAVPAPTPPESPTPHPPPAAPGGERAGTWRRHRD

[33] = target: MKNK1 (human) (UniProt Q9BUB5)
Sequence of MKNK1 (human) (Q9BUB5 whole entry, looked up): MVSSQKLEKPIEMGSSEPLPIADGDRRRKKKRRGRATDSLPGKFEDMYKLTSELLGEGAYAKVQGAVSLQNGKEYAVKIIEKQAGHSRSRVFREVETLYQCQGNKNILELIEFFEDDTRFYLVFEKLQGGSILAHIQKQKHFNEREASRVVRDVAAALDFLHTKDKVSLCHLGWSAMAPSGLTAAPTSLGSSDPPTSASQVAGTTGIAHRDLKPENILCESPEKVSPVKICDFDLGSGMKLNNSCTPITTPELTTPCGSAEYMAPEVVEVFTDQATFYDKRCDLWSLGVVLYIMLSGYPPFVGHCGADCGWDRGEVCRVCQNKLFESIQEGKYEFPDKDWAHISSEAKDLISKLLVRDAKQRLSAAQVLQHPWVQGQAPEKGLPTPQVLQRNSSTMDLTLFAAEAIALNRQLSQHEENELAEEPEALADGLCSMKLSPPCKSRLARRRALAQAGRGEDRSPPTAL

[34] = target: MAP3K2 (human) (UniProt Q9Y2U5)
[35] = target: DCLK1 (human) (UniProt O15075)
[36] = target: NEK10 (human) (UniProt Q6ZWH5)
[37] = target: PAK6 (human) (UniProt Q9NQU5)
[38] = test system: PIK3CA (human), P42336 [E545A]
[39] = target: PHKG2 (human) (UniProt P15735)
[40] = target: MARK4 (human) (UniProt Q96L34)
Sequence of MARK4 (human) (Q96L34 whole entry, looked up): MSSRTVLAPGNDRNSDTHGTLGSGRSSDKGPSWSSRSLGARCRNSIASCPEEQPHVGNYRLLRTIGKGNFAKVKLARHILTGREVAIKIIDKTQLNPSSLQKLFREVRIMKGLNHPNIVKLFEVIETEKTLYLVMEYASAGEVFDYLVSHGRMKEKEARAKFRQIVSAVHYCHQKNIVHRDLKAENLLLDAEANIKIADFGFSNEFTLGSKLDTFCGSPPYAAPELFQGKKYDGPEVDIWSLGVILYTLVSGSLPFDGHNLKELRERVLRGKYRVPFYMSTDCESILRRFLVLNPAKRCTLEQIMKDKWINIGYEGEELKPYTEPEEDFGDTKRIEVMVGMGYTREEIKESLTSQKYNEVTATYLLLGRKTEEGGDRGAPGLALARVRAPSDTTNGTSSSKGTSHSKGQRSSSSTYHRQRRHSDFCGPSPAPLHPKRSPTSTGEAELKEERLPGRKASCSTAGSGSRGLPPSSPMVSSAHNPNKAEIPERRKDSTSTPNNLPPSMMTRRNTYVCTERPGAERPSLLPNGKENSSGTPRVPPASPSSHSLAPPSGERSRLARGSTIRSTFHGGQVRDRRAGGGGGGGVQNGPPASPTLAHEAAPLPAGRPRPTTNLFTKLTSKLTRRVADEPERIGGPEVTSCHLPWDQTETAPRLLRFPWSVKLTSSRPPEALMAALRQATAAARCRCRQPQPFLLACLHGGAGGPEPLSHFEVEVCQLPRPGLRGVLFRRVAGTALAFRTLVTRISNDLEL

[41] = target: CSNK1G2 (human) (UniProt P78368)
Sequence of CSNK1G2 (human) (P78368 whole entry, looked up): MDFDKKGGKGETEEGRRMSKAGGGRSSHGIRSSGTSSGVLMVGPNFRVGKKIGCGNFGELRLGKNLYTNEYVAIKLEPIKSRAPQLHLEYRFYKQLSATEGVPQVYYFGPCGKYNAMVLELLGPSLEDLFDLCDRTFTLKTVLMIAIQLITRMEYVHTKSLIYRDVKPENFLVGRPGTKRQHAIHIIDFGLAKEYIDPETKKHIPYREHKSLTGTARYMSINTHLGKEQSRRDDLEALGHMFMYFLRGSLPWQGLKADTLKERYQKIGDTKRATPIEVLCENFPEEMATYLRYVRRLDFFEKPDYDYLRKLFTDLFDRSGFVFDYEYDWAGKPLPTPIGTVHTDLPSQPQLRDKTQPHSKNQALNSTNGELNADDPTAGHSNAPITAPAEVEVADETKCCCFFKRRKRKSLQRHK

CCc1ccc(C(=O)Nc2cc(CN3CCN(C)CC3)cc(C(F)(F)F)c2)cc1C#Cc1cnc2ccnn2c1 was tested, and the kinase still bound, per cent of control [1] was 53%, the kinase still bound, per cent of control [2] was 100% and the kinase still bound, per cent of control [3] was 100%. It also gave a kinase still bound, per cent of control [4] of 100%, a kinase still bound, per cent of control [5] of 100% and a kinase still bound, per cent of control [6] of 100%. The kinase still bound, per cent of control [7] was 80%, the kinase still bound, per cent of control [8] was 100% and the kinase still bound, per cent of control [9] was 100%. It also gave a kinase still bound, per cent of control [10] of 100%, a kinase still bound, per cent of control [11] of 78% and a kinase still bound, per cent of control [12] of 100%. It also gave a kinase still bound, per cent of control [13] of 100%, a kinase still bound, per cent of control [14] of 100% and a kinase still bound, per cent of control [15] of 80%. For the same molecule, the kinase still bound, per cent of control [16] was 100%, the kinase still bound, per cent of control [17] was 94% and the kinase still bound, per cent of control [18] was 83%. The kinase still bound, per cent of control [19] was 100%, the kinase still bound, per cent of control [20] was 74% and the kinase still bound, per cent of control [21] was 96%. The kinase still bound, per cent of control [22] was 100%, the kinase still bound, per cent of control [23] was 100% and the kinase still bound, per cent of control [24] was 92%. The kinase still bound, per cent of control [25] was 85%, the kinase still bound, per cent of control [26] was 100% and the kinase still bound, per cent of control [27] was 97%. It also gave a kinase still bound, per cent of control [28] of 47%, a kinase still bound, per cent of control [29] of 72% and a kinase still bound, per cent of control [30] of 100%. For the same molecule, the kinase still bound, per cent of control [31] was 100%, the kinase still bound, per cent of control [32] was 100% and the kinase still bound, per cent of control [33] was 91%. The kinase still bound, per cent of control [34] was 100%, the kinase still bound, per cent of control [35] was 100% and the kinase still bound, per cent of control [36] was 100%. The kinase still bound, per cent of control [37] was 81%, the kinase still bound, per cent of control [38] was 100% and the kinase still bound, per cent of control [39] was 66%. The kinase still bound, per cent of control [40] was 71% and the kinase still bound, per cent of control [41] was 100%.
